The record followed here is patent US6193967A, “Bispecific reagents for redirected targeting of human lipoproteins” (priority 1997, dated 2001).

The test has as its system monocytes. As to the kind of experiment: Uptake of bispecific LDL*-IC by monocytes (flow cytometry of cell-associated fluorescence). The test is classed as cell-based, human. The following applies: monocytes at 37° C., bispecific LDL*-IC (anti-FcγRII×anti-LDL plus BODIPY-LDL); antioxidant concentration not given. The protocol:
All experiments were done under sterile conditions. For each experiment, bispecific LDL immune complexes (bispecific LDL*-IC) were freshly prepared by combining 4 μg/ml of LDL* with heteroantibodies in eppendorf tubes in monocyte culture medium (without serum or unlabeled LDL unless otherwise indicated), and incubating for one hour at room temperature, prior to adding cells in RPMI 1640 plus 10% FCS. That concentration of LDL* was chosen because it gave a satisfactory signal to noise ratio. In all experiments, a control consisting of LDL* alone was set up by substituting medium for heteroantibody. The final volume of bispecific complexes prior to addition of cells was […]; […] of cells at 1×10^7 /ml were added for a final volume of […]. The tubes were then mixed by gentle pipetting, and incubated at 4° C. or 37° C. as indicated. Final mAb or heteroantibody concentrations are shown in each figure; the final concentration of LDL* in all preparations was 1.33 μg/ml unless otherwise indicated. […]
In all experiments, cells were removed after various times of incubation and washed twice with one ml of PBS at room temperature. […] For cytofluorogaphic analysis, samples were analyzed for green fluorescence on a FACScan (Becton-Dickinson). The excitation wavelength was 488 nm and emission at 515 nm was analyzed. […]
(In general: A flow cytometer gives signals particle by particle.)

As to `Cc1cc(C(C)(C)C)c(O)c(C(C)(C)C)c1` [butylated hydroxytoluene], the “effect on the response to bispecific LDL*-IC (uptake by monocytes)” value was “had no effect”.
